Test results from ChEMBL document CHEMBL1146171, “Discovery and initial development of a novel class of antibacterials: inhibitors of Staphylococcus aureus transcription/translation” (Bioorg Med Chem Lett, 2006).
≈ marks a conversion by molar mass, not a printed value.

Assays:
Type in all cases: functional
Staphylococcus aureus [1] = assay: Antibacterial activity against Staphylococcus aureus
Staphylococcus aureus [2] = assay: Inhibition of coupled transcription/translation in Staphylococcus aureus at 100 uM; details: for IC50 / inhibition at 100 µM: Staphylococcus aureus
Staphylococcus aureus [3] = assay: Inhibition of coupled transcription/translation in Staphylococcus aureus at 30 uM
[4] = Staphylococcus aureus, read-out: MIC

MIC (Staphylococcus aureus [1]; [4]) [µg/mL] | IC50 (Staphylococcus aureus [2]) [µM] | MIC (Staphylococcus aureus [1]) [µg/mL] | Compound | inhibition at 100 µM (Staphylococcus aureus [2]) [%] | inhibition at 30 µM (Staphylococcus aureus [3]) [%] | Inhibition (Staphylococcus aureus [2]) [%]
16 (≈ 28.7 µM) | 30 |  | CC1(c2ccccc2)CCCN(S(=O)(=O)c2ccc(C(=O)Nc3ccc(Br)cc3C(=O)O)cc2)C1 (stereo unspecified) | 96 |  | 
2 (≈ 3.78 µM) | 55 |  | CC1(C)Cc2ccccc2N1S(=O)(=O)c1ccc(C(=O)Nc2ccc(Br)cc2C(=O)O)cc1 | 87 |  | 
8 (≈ 16.5 µM) |  |  | CCCN(CCC)S(=O)(=O)c1ccc(C(=O)Nc2ccc(Br)cc2C(=O)O)cc1 | 61 |  | 
> 128 |  |  | O=C(Nc1cc(F)c(F)cc1C(=O)O)c1ccc(S(=O)(=O)Nc2cccc(C(F)(F)F)c2)cc1 | 55 |  | 
16 (≈ 30.9 µM) |  |  | CCCN(c1ccccc1)S(=O)(=O)c1ccc(C(=O)Nc2ccc(Br)cc2C(=O)O)cc1 | 80 |  | 
> 128 |  |  | CCCN(CCC)S(=O)(=O)c1ccc(C(=O)Nc2ccc3ccccc3c2)cc1 | 10 |  | 
8 (≈ 14.9 µM) |  |  | O=C(Nc1ccc(Br)cc1C(=O)O)c1ccc(S(=O)(=O)N2CCCC23CCC(O)CC3)cc1 (stereo unspecified) | 22 |  | 
64 (≈ 128 µM) |  |  | N#Cc1cccc(NS(=O)(=O)c2ccc(C(=O)Nc3ccc(Br)cc3C(=O)O)cc2)c1 | 30 |  | 
16 (≈ 28.3 µM) |  |  | CCCN(c1ccccc1)S(=O)(=O)c1ccc(C(=O)Nc2ccc(I)cc2C(=O)O)cc1 | 90 |  | 
32 (≈ 57.3 µM) |  |  | O=C(Nc1ccc(Br)cc1C(=O)O)c1ccc(S(=O)(=O)N2CCC(Nc3ccccc3)CC2)cc1 | 62 |  | 
1 (≈ 1.87 µM) | 40 | 0.5 (≈ 0.933 µM) | O=C(Nc1ccc(Br)cc1C(=O)O)c1ccc(S(=O)(=O)N2CCc3ccc(Cl)cc32)cc1 | 96 | 93 | 
> 128 |  |  | CN(c1ccc(Cl)cc1)S(=O)(=O)c1ccc(C(=O)Nc2ccc(F)cc2C(=O)O)cc1 | 30 |  | 
8 (≈ 13.8 µM) |  |  | O=C(Nc1ccc(Br)cc1C(=O)O)c1ccc(S(=O)(=O)Nc2cccc(OCc3ccccc3)c2)cc1 | 75 |  | 
16 (≈ 28.7 µM) | 28 |  | O=C(Nc1ccc(Br)cc1C(=O)O)c1ccc(S(=O)(=O)N2CCC(Cc3ccccc3)CC2)cc1 | 98 |  | 
8 (≈ 15.3 µM) |  | 16 (≈ 30.5 µM) | CN(c1ccc(Cl)cc1)S(=O)(=O)c1ccc(C(=O)Nc2ccc(Br)cc2C(=O)O)cc1 | 75 |  | 80
16 (≈ 34.2 µM) |  |  | O=C(Nc1ccc(Br)cc1C(=O)O)c1ccc(S(=O)(=O)N2CCCCC2)cc1 |  |  | 35
32 (≈ 62.1 µM) |  |  | COCCN(CCOC)S(=O)(=O)c1ccc(C(=O)Nc2ccc(Br)cc2C(=O)O)cc1 | 10 |  | 
8 (≈ 14.7 µM) | 55 |  | O=C(Nc1ccc(Br)cc1C(=O)O)c1ccc(S(=O)(=O)N2CCC(c3ccccc3)CC2)cc1 | 96 |  | 
0.25 (≈ 0.472 µM) |  |  | Cc1ccc(C(=O)Nc2ccc(Br)cc2C(=O)O)cc1S(=O)(=O)NC1Cc2ccccc2C1 |  | 20 | 
0.25 (≈ 0.421 µM) |  |  | O=C(Nc1ccc(Br)cc1C(=O)O)c1cc(S(=O)(=O)NC2Cc3ccccc3C2)ccc1Br |  | 30 | 
4 (≈ 7.88 µM) | 60 |  | O=C(Nc1ccc(Br)cc1C(=O)O)c1ccc(S(=O)(=O)N2CC3CCCC(C3)C2)cc1 | 88 |  | 
64 (≈ 134 µM) |  |  | CN(c1ccc(Cl)cc1)S(=O)(=O)c1ccc(C(=O)Nc2cc(Cl)ccc2C(=O)O)cc1 | 47 |  | 

MIC (Staphylococcus aureus [1]; [4]) [µg/mL] | IC50 (Staphylococcus aureus [2]) [µM] | MIC (Staphylococcus aureus [1]) [µg/mL] | Compound | inhibition at 100 µM (Staphylococcus aureus [2]) [%] | inhibition at 30 µM (Staphylococcus aureus [3]) [%] | Inhibition (Staphylococcus aureus [2]) [%]
0.5 (≈ 0.817 µM) |  |  | O=C(Nc1ccc(Br)cc1C(=O)O)c1cc(S(=O)(=O)Nc2ccc3c(c2)OCCO3)ccc1Br |  | 15 | 
16 (≈ 33.4 µM) |  |  | CN(c1ccc(Cl)cc1)S(=O)(=O)c1ccc(C(=O)Nc2ccc(Cl)cc2C(=O)O)cc1 | 85 |  | 
16 (≈ 31.7 µM) |  |  | COc1cccc(NS(=O)(=O)c2ccc(C(=O)Nc3ccc(Br)cc3C(=O)O)cc2)c1 | 20 |  | 
32 (≈ 67.7 µM) |  |  | CCCN(c1ccccc1)S(=O)(=O)c1ccc(C(=O)Nc2ccc(Cl)cc2C(=O)O)cc1 | 50 |  | 
8 (≈ 16.2 µM) |  |  | O=C(Nc1ccc(Br)cc1C(=O)O)c1ccc(S(=O)(=O)N2CC3CCC2CC3)cc1 | 57 |  | 
> 128 |  |  | CCCN(CCC)S(=O)(=O)c1ccc(C(=O)Nc2cc3ccccc3cc2O)cc1 | 10 |  | 
> 128 |  |  | CN(c1ccc(Cl)cc1)S(=O)(=O)c1ccc(C(=O)Nc2ccc(Cl)c(C(=O)O)c2)cc1 | 10 |  | 
32 (≈ 61.6 µM) |  |  | COc1ccc(N(C)S(=O)(=O)c2ccc(C(=O)Nc3ccc(Br)cc3C(=O)O)cc2)cc1 | 50 |  | 
> 128 |  |  | COc1ccc(NC(=O)c2ccc(S(=O)(=O)Nc3cccc(C(F)(F)F)c3)cc2)c(C(=O)O)c1 | 35 |  | 
> 128 |  |  | O=C(Nc1ccc(Br)cc1C(=O)O)c1ccc(S(=O)(=O)N2CCC[C@@H]2CO)cc1 | 19 |  | 
64 (≈ 141 µM) |  |  | CCCN(CCC)S(=O)(=O)c1ccc(C(=O)Nc2cc3ccccc3cc2C(=O)O)cc1 | 30 |  | 
1 (≈ 1.87 µM) | 80 |  | O=C(Nc1ccc(Br)cc1C(=O)O)c1ccc(S(=O)(=O)N2CCc3cc(Cl)ccc32)cc1 | 71 |  | 
> 128 |  |  | COC(=O)c1cc(Br)ccc1NC(=O)c1ccc(S(=O)(=O)Nc2cccc(OCc3ccccc3)c2)cc1 | 4 |  | 
128 (≈ 283 µM) |  |  | CCCN(c1ccccc1)S(=O)(=O)c1ccc(C(=O)Nc2ccc(C)cc2C(=O)O)cc1 | 34 |  | 
4 (≈ 7.98 µM) |  |  | O=C(Nc1ccc(Br)cc1C(=O)O)c1ccc(S(=O)(=O)N2Cc3ccccc3C2)cc1 | 77 |  | 
16 (≈ 31.4 µM) |  |  | O=C(Nc1ccc(Br)cc1C(=O)O)c1ccc(S(=O)(=O)Nc2ccc(Cl)cc2)cc1 | 45 |  | 
4 (≈ 7.67 µM) | 60 |  | O=C(Nc1ccc(Br)cc1C(=O)O)c1ccc(S(=O)(=O)N2CCCC23CCCCC3)cc1 | 90 |  | 
> 128 |  |  | CCCN(CCC)S(=O)(=O)c1ccc(C(=O)Nc2c(OC)cc(OC)cc2C(=O)O)cc1 | 0 |  | 
> 128 |  |  | Cc1cc(Br)ccc1NC(=O)c1ccc(S(=O)(=O)N(C)c2ccc(Cl)cc2)cc1 | 12 |  | 
8 (≈ 15.5 µM) | 60 |  | O=C(Nc1ccc(Br)cc1C(=O)O)c1ccc(S(=O)(=O)N2CCc3ccccc3C2)cc1 | 84 |  | 
8 (≈ 14.7 µM) |  |  | O=C(Nc1ccc(Br)cc1C(=O)O)c1ccc(S(=O)(=O)Nc2cccc(C(F)(F)F)c2)cc1 | 65 |  | 
16 |  |  | Cl.O=C(Nc1ccc(Br)cc1C(=O)O)c1ccc(S(=O)(=O)N2CCCCC2)cc1 | 34 |  | 
